According to patent publication US6680052B1, “Methods of inhibiting tumor growth using adenosine receptor activated cells” (Endacea, Inc., priority 1999, dated 2004):

How the values were obtained:
[1] = test system: pulmonary artery endothelial cells; assay: Phospholipase A2 increase following hypoxia/anoxia of pulmonary artery endothelial cells in vitro; format: cell-based
Description: Following ischemia and reperfusion, activation of A1 adenosine receptors present on pulmonary arterial endothelial cells results in a cytotoxic effect. In heart tissue adenosine, A1 adenosine receptor agonists, or a brief period (from approximately 5 to about 15 minutes) of preconditioning ischemia attenuates ischemia-reperfusion (I-R) injury. See, […] Keith, Am. J. Physiol. 268:[…] (1995). In the lung, thromboxane is released during ischemia and is a mediator of I-R injury. Adenosine produces vasoconstriction in the pulmonary vascular bed by acting on A1 receptors to induce the release of thromboxane. These vasoconstrictor responses in endothelial cells are desensitized by prior treatment with low doses of A1 receptor agonists. It was hypothesized that during preconditioning ischemia, adenosine attenuates ischemia-reperfusion injury of the heart by activation and subsequent desensitization of A1 adenosine receptors. Preconditioning ischemia attenuates ischemia-reperfusion (I-R) injury of both lung and heart. […]

[2] = test system: pulmonary arterial endothelial cells; assay: Thromboxane release from pulmonary arterial endothelial cells; format: cell-based
Excerpt: DPCPX and ^125I-BW A844U. These findings indicate that LPS binds to and activates Al adenosine receptors on pulmonary artery endothelial cells. Also, A1 adenosine receptor antagonists are able to block such endotoxin-induced lung injury, supporting that activation of A1 adenosine receptors is important in endotoxin-induced acute lung injury. Neely, Jin and Keith, Am J. Physiol., Lung Cell Mol. Physiol. , 268:L1036, 1995.
The methods of the present invention also utilize hypoxia and reoxygenation conditions to increase A1 adenosine receptor activation and signal transduction pathways which, following activation, result in the release of cytotoxic substances. As noted above, following ischemia and reperfusion, activation of A1 adenosine receptors present on pulmonary arterial endothelial cells causes a cytotoxic effect (Neely and Keith (1995)), and the release of a cytotoxic substance, thromboxane, has been found by the present inventor to be blocked by an A1 adenosine receptor antagonist (DPCPX). In heart tissue adenosine, A1 adenosine receptor agonists, or a brief period of preconditioning ischemia attenuates ischemia-reperfusion (I-R) injury. In the lung, thromboxane is released during ischemia and is a mediator of I-R injury. Moreover, ischemia and reperfusion enhance the capacity of LPS to produce cytotoxicity and damage organs. […]

A1 adenosine receptors = target: T1, A1 adenosine receptors (Homo sapiens, UniProt P30542); assay: Endotoxin induced inhibition of adenylate cyclase in pulmonary arterial endothelial cells; format: cell-based
T1 construct: endogenous in cells; host or cells: pulmonary arterial endothelial cells
T1 sequence (P30542 1-326): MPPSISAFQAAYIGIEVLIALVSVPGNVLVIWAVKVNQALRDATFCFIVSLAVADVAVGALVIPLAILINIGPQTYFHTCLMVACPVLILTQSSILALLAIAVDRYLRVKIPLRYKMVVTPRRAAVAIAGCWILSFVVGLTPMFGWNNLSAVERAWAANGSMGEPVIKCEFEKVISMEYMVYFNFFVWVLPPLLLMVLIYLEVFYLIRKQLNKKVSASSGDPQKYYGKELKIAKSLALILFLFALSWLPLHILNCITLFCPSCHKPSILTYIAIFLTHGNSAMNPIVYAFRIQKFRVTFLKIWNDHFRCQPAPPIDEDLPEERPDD
Excerpt: DPCPX and ^125I-BW A844U. […] Neely, Jin and Keith, Am J. Physiol., Lung Cell Mol. Physiol. , 268:L1036, 1995.

[3] = test system: human metastatic cell lines; details: administered directly to the cell lines, in vitro; cited from earlier work
[4] = test system: human epidermoid carcinoma cells; details: low versus higher concentrations; cited from earlier work
monocytes = details: cited from earlier work

## CCCn1c(=O)c2[nH]c(C3CCCC3)nc2n(CCC)c1=O [DPCPX, 1,3 dipropyl 8 cyclopentylxanthine]
[1]
  increase in phospholipase A2 (PLA2): inhibits
[2]; following ischemia and reperfusion, A1 adenosine receptor activation
  release of thromboxane: blocked
[2]; pulmonary arterial endothelial cells
  endotoxin induced thromboxane release: blocked
A1 adenosine receptors
  endotoxin induced inhibition of adenylate cyclase: blocked

## CCNC(=O)[C@H]1O[C@@H](n2cnc3c(N)ncnc32)[C@H](O)[C@@H]1O [NECA, 5′-(N-ethyl)-carboxamidoadenosine]
[3]
  effect on cell growth: inhibitory effect

## CCCn1c(=O)c2[nH]c(-c3ccc(Cl)cc3N)nc2n(CCC)c1=O [PACPX, 1,3-dipropyl-8-(2-amino-4-chloropheny)-xanthine]
[3]
  effect on cell growth: inhibitory effect

## Nc1ncnc2c1ncn2[C@@H]1O[C@H](CO)[C@@H](O)[C@H]1O [adenosine]
[4]
  colony formation: biphasic response

## [Na+].[Na+].[Na+].[O]=[V]([O-])([O-])[O-] [vanadate, sodium orthovanadate]
monocytes
  LPS induced production of TNFα: enhanced
